According to PMC10560236, “A protein kinase C α and β inhibitor blunts hyperphagia to halt renal function decline and reduces adiposity in a rat model of obesity-driven type 2 diabetes” (Scientific Reports, 2023):

How the values were obtained:
ZSF1 lean and SD rats = experiment: 7-day food consumption and body weight study, Cmpd 1 chow, ZSF1 lean and SD rats; type: in vivo, rat; conditions: 7 days
Source text: To evaluate food consumption in different rat strains, cohorts of 10 male ZSF1 obese rats, 8 male ZSF1 lean littermate rats, and 10 age-matched male Sprague Dawley (SD) rats were divided into two groups and fed chow with or without 0.744 g/kg Cmpd 1 (Cmpd 1 chow) for 7 days.

PKCθ = PKCθ (Homo sapiens, UniProt Q04759); experiment: Z'-Lyte recombinant enzyme assay, PKCθ; type: biochemical
Sequence of PKCθ (Q04759 whole entry): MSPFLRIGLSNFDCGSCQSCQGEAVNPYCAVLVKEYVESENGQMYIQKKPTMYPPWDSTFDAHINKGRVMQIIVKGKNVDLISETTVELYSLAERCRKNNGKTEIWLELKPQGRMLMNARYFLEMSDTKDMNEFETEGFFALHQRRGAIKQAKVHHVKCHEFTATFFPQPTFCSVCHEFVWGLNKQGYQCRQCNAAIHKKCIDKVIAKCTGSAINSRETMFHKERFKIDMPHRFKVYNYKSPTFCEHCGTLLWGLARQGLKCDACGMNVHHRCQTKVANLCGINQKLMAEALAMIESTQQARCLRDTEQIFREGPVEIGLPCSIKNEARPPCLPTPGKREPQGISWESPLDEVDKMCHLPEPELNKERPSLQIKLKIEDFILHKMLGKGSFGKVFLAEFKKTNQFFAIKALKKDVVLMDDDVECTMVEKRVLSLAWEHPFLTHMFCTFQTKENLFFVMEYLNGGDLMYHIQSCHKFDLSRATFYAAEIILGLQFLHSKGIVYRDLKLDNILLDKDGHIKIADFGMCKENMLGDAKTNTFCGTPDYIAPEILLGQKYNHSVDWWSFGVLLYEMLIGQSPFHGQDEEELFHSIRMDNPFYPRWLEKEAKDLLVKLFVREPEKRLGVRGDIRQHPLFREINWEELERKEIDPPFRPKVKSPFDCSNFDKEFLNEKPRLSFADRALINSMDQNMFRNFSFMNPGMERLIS
Protocol: (§1) Half maximal inhibitory concentrations of Cmpd 1 were determined by Z’-Lyte biochemical assays (Life Technologies SelectScreen™ Kinase Profiling Services, Thermo Fisher Scientific). Kinome selectivity was determined at 1 μM Cmpd 1 concentration against a panel of 119 kinases. The original kinome tree in Fig. 1b was taken from Ref.[68].

panel of 119 kinases = experiment: Kinome selectivity profiling; type: biochemical; conditions: 1 μM Cmpd 1, panel of 119 kinases
Protocol: as §1

PKCι = target: T1, PKCι (Homo sapiens, UniProt P41743); experiment: Z'-Lyte recombinant enzyme assay, PKCι; type: biochemical
T1 sequence (P41743 1-596): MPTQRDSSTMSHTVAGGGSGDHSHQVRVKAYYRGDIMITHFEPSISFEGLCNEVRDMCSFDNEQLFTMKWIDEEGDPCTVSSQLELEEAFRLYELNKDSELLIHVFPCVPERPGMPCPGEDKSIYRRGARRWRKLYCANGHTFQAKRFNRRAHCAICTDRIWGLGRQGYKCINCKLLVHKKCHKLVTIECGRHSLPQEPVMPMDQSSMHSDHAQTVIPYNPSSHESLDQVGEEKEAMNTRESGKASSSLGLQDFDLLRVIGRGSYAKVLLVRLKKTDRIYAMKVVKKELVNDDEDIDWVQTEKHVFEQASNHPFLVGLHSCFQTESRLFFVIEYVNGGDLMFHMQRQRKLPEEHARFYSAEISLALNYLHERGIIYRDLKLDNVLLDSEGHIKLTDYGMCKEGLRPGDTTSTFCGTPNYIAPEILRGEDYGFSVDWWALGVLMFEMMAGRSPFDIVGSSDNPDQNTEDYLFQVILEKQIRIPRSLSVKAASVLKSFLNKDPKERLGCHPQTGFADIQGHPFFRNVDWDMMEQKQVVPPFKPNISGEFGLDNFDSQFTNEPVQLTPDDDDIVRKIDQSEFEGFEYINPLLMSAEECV
Protocol: as §1

[1] = 4-day pharmacokinetic study with chow dosing; type: in vivo, rat; conditions: ZSF1 obese rats, chow dosing approx. 50 mpk/day, corrected for plasma protein binding
Protocol: Three male 12-week old ZSF1 obese rats were fed control or 0.744 g/kg Cmpd 1 chow for 4 days. Food consumption was estimated by measuring food provided versus food remaining in the hopper. Blood was collected through tail vein from each animal at 9 a.m. and 4 p.m. 2 days after chow dosing started, and at 9 a.m. four days after chow dosing started, for PK determination. Plasma protein binding of Cmpd 1 was measured by equilibrium dialysis of the in vitro fraction unbound of Cmpd 1 at a concentration of […] in plasma from pooled male and female CD-1 mice. Plasma was centrifuged and supernatant was analyzed by liquid chromatography–tandem mass spectrometry to detect Cmpd 1 (York Bioanalytical Solutions; York, UK).

[2] = system: intact glomeruli isolated from SD rats; experiment: PMA-luminol ROS assay in intact glomeruli; type: cell-based; conditions: intact SD rat glomeruli, 16 μM PMA, luminol luminescence; read-out: IC50, PMA-induced ROS production (change in velocity)
Protocol: For the phorbol 12-myristate 13-acetate (PMA)-luminol assay, glomeruli isolated from PBS-perfused kidneys were diluted in an HBSS solution containing 1 mM luminol, 0.1 M HEPES, and 0.1% fatty-acid free BSA. Approximately 3000 glomeruli were plated per well in a 96-well white OPTI-plate (Perkin Elmer 6005290). The reaction was started by the addition of PMA to a final concentration of 16 μM in the absence or presence of increasing Cmpd 1. Luminol luminescence was read on an Envision plate reader in kinetic read mode.

## Cc1ncc(F)c(Nc2n[nH]c3c2CN(C(=O)N2C[C@@H](C)N(CC4CCOCC4)C[C@@H]2C)C3(C)C)n1 [Cmpd 1, 5-[(2S,5R)-2,5-dimethyl-4-(tetrahydro-2H-pyran-4-ylmethyl)piperazin-l-yl]carbonyl-N-(5-fluoro-2-methylpyrimidin-4-yl)-6,6-dimethyl-1,4,5,6-tetrahydropyrrolo[3,4-c]pyrazol-3-amine]
ZSF1 lean and SD rats
  Body weight loss: did not
PKCθ
  IC50: 28 nM
Panel of 119 kinases
  Kinome selectivity: good selectivity
PKCι
  IC50: > 10000 nM
[1]; 4 p.m.
  Free drug concentration in serum, evening: ~400 nM
[1]; 9 a.m.
  Free drug concentration in serum, morning: roughly 700 nM
[2]
  IC50: 76 nM
